US20050255042A1, “On-demand cleavable linkers for radioconjugates for cancer imaging and therapy” (The Regents of the University of California Office of …, priority 2003, published 2005)
One block for each substance: values may come before it.

Tests used:
[1] = 1.25 mg/kg body weight over 3 hours; 8 of 73 patients; cited from earlier work
[2] = in vivo; cited from earlier work
[3] = molecular target: t-PA (Homo sapiens, UniProt P00750); settings: cited from earlier work
[4] = molecular target: T1, TNKase® (Homo sapiens, UniProt P00750, H332A/K331A/N152Q/R333A/R334A/T138N); experiment: Cleavage of soluble peptides in plasma plus TNKase®, fluorescence plate reader; assay type: biochemical
T1 construct: Activase® is a purified glycoprotein of 527 amino acids produced by recombinant DNA technology; purchased Genentech; host or cells: Chinese Hamster Ovary cells
Protocol: (§1) The peptides in Table 3 were re-synthesized in soluble form with nitrotyrosine (Y(NO2) at the N-terminus and Abz at the ε-amino group of the lysine residue (k(Abz)) at the C-terminus. They were then incubated with human plasma alone or plasma plus TNKase® in a 96-well plate and the cleavage reaction was monitored over a period of time with a fluorescent plate reader. Each well contained 90 μM of peptides, 10 μl of plasma in PBS, ph 7.2, with or without 1 μg of TNKase®, in a final volume of 100 μl. Cleavage was measured as fluorescence intensity at different time intervals in the fluorescence plate reader at 360/440 nm excitation and emission range.

[5] = Cleavage of soluble peptides in human plasma alone, fluorescence plate reader; assay type: in vitro ADME; settings: 90 μM peptide, 10 μl plasma in PBS pH 7.2, without TNKase®
Protocol: as §1

T1 sequence (P00750 36-562 T138N/N152Q/K331A/H332A/R333A/R334A): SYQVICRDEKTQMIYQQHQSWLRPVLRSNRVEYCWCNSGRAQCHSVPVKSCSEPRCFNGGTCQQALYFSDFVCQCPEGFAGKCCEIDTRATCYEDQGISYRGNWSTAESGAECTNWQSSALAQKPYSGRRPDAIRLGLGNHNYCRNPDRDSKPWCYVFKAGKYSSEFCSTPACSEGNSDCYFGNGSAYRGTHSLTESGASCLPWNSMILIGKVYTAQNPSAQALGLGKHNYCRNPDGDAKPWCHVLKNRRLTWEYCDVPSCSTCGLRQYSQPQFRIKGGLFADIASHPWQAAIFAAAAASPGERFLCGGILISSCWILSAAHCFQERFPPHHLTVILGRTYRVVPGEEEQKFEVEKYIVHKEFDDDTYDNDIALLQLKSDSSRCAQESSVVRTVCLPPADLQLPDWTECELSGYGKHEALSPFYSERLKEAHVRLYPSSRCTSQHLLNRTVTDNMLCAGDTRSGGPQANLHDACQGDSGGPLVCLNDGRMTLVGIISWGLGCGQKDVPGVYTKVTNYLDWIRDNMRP
t-PA, sequence (P00750 36-562, species assumed): as the sequence (P00750 36-562 T138N/N152Q/K331A/H332A/R333A/R334A) above, with N103T, Q117N, A296K, A297H, A298R, A299R counted along it

Substance: Activase®: purified recombinant t-PA glycoprotein of 527 amino acids, from Genentech
patients with a decrease in fibrinogen to below 100 mg/dl [1]: 11% | initial plasma half-life [2]: 5 min | plasma clearance [2]: 380 to 570 mL/min

Substance: GGSG PFGR↓SA LVPEE
hydrolysis efficiency by t-PA versus a peptide of similar length from the native cleavage site of plasminogen [3]: 5000 fold

time to complete degradation by TNKase® ([4]; 10 μg/ml TNKase®): ≤ 2 h | degradation on incubation with TNKase® ([4]; 10 μg/ml TNKase®, two hours): completely degraded | susceptibility to TNKase® cleavage ([4]; plasma plus TNKase®): rapidly degraded | stability / cleavage in human plasma [5]: completely stable
Substance: rqYKYkf [compound 20]
